Data as given in patent US6242199A, “Assays for growth hormone secretagogue receptors” (Merck & Co., Inc., priority 1998, dated 2001).
pKd: −log10 of the molar value.

Columns and labels:
[1] = test system: swine growth hormone secretagogue receptor (GHSR); experiment: Aequorin bioluminescence assay in Xenopus oocytes injected with swine pituitary mRNA / cDNA library pool or clone cRNA; type: cell-based; conditions: 1 μM
Experimental: (§1) Xenopus laevis oocytes were isolated and injected using standard methods previously described by Arena, et. al. 1991, Mol. Pharmacol. 40, 368-374, which is hereby incorporated by reference. Adult female Xenopus Laevis frogs (purchased from Xenopus One, Ann Arbor, Mich.) were anesthetized with 0.17% tricaine methanesulfonate and the ovaries were surgically removed and placed in a 60 mm culture dish (Falcon) containing OR-2 medium without calcium (82.5 mM NaCl, 2 mM KCl, 2.5 mM sodium pyruvate, 1 mM MgCl2, 100 μ/ml penicillin, 1 mg/ml streptomycin, 5 mM HEPES, pH=7.5; ND-96 from Specialty Media, NJ). Ovarian lobes were broken open, rinsed several times, and oocytes were released from their sacs by collagenase A digestion (Boehringer-Mannheim; 0.2% for 2-3 hours at 18° C.) in calcium-free OR-2. […]
(§2) The ABA requires injection of library pool cRNA (25 ng/egg for pool sizes of 500 to 10,000) with aequorin cRNA (2 ng/egg) supplemented with the G-protein alpha subunit Gα11 (2 ng/egg). […] Polymerase chain reaction (PCR) was utilized to generate a DNA fragment corresponding to the open reading frame (ORF) of the aequorin cDNA with an optimized Kosak translational initiation sequence (Inouye, S. et. al., 1985, Proc. Natl. Acad. Sci. USA 82:3154-3158). […]

[2] = target: T1, swine growth hormone secretagogue receptor (Type I, clone 7-3) (Sus scrofa, UniProt Q95254); experiment: [35S]-Compound A binding to COS-7 cell membranes transfected with swine GHSR clone 7-3
T1 construct: translation of the longest ORF encoded in clone 7-3 encodes a protein of 353 amino acids; expressed in transfected cells; host or cells: COS-7 (transient, Lipofectamine)
Experimental: Mammalian cells (COS-7) were transfected with GHSR expression plasmids using Lipofectamine (GIBCO-BRL; Hawley-Nelson, 1993, Focus 15:73). Transfections were performed in 60 mm dishes on 80% confluent cells (approximately 4×10^5 cells) with 8 μg of Lipofectamine and 32 μg of GHSR plasmid DNA.
Binding of [^35 S]-Compound A to swine pituitary membranes and crude membranes prepared from COS-7 cells transfected with GHSR expression plasmids was conducted. Crude cell membranes from COS-7 transfectants were prepared on ice, 48 hrs. post-transfection. Each 60 mm dish was washed twice with 3 ml of PBS, once with 1 ml homogenization buffer (50 mM Tris-HCl [pH 7.4], 5 mM MgCl2, 2.5 mM EDTA, 30 μg/ml bacitracin). 0.5 ml of homogenization buffer was added to each dish, cells were removed by scraping and then homogenized using a Polytron device (Brinkmann, Syosset, N.Y.; 3 bursts of 10 sec. at setting 4). The homogenate was then centrifuged for 20 min. at 11,000×g at 0° C. and the resulting crude membrane pellet (chiefly containing cell membranes and nuclei) was resuspended in homogenization buffer supplemented with 0.06% BSA (0.1 ml/60 mm dish) and kept on ice. Binding reactions were performed at 20° C. for 1 hr. in a total volume of 0.5 ml containing: 0.1 ml of membrane suspension, 10 μl of [^35 S]-Compound A (0.05 to 1 nM; specific activity approximately 900 Ci/mmol), 10 μl of competing drug and 380-390 μl of homogenization buffer. Bound radioligand was separated by rapid vacuum filtration (Brandel 48-well cell harvester) through GF/C filters pretreated for 1 hr. with 0.5% polyethylenimine. After application of the membrane suspension to the filter, the filters were washed 3 times with 3 ml each of ice cold 50 mM Tris-HCl [pH 7.4], 10 mM MgCl2, 2.5 mM EDTA and 0.015% Triton X-100, and the bound radioactivity on the filers was quantitated by scintillation counting. Specific binding (>90% of total) is defined as the difference between total binding and non-specific binding conducted in the presence of 50 nM unlabeled Compound A.

human Type I GHSR = experiment: Aequorin bioluminescence assay in Xenopus oocytes, human Type I GHSR; type: cell-based; conditions: human Type I cRNA in oocytes; tested from 1 μM down
Experimental: as §1, §2

human Type II GHSR = experiment: Aequorin bioluminescence assay in Xenopus oocytes, human Type II GHSR; type: cell-based; conditions: human Type II-derived cRNA truncated in TM-6
Experimental: as §1, §2

swine Type I GHSR = experiment: Aequorin bioluminescence assay in Xenopus oocytes, swine Type I GHSR; type: cell-based; conditions: swine Type I cRNA in oocytes; tested from 1 μM down
Experimental: as §1, §2

T1 sequence (Q95254 14-366): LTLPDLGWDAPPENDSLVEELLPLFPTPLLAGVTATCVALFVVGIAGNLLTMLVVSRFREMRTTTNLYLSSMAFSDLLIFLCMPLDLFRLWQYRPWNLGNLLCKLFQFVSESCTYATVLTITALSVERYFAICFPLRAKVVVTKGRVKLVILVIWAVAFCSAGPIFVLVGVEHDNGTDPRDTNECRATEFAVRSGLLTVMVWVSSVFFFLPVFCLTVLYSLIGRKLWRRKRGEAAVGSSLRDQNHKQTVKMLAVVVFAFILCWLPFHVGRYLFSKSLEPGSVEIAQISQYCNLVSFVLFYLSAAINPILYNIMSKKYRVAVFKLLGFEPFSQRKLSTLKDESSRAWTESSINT

- bioluminescence response (in words) ([1]; clones 7-3 and 28-18): positive bioluminescence response
- bioluminescent signal (in words) ([1]; pool P541): positive bioluminescent signal
- inhibition at 0.05 µM ([2]; 1 h, 50 nM unlabeled Compound A, read-out: specific binding displaced by unlabeled Compound A): > 90%
- saturable binding, Bmax ([2]; clone 7-3 expressed transiently in COS-7 cells): ~ 80 fmol/mg protein
- pKd ([2]; clone 7-3 expressed transiently in COS-7 cells, read-out: high affinity binding, KD): ~9.70
- specific binding of total ([2]; nonspecific in presence of 50 nM unlabeled Compound A): > 90%
Structure (SMILES): CC(C)(N)C(=O)N[C@H](COCc1ccccc1)C(=O)N1CCC2(CC1)CN(S(C)(=O)=O)c1ccccc12 [Compound A, (N-[1(R)-[1,2-dihydro-1-methanesulfonlylspiro[3H-indole-3,4'-piperidin]-1'-yl)carbonyl]-2-(phenylmethyloxy)-ethyl]-2-amino-2-methyl-propanamide]
- lowest Compound A concentration giving a response (human Type I GHSR): 0.1 nM
- response (in words) (human Type II GHSR): failed to give a response
- lowest Compound A concentration giving a response (swine Type I GHSR): 0.1 nM
